Columns and labels:
Assay type in all cases: in vivo
Settings in all cases: 250 g/ha, evaluated after 13 days, 100=total damage to plant, 0=no damage to plant
[1] = test system: Amaranthus palmeri (AMAPA); assay: Pre-emergence biological efficacy, AMAPA
Experimental: (§1) Seeds of weeds and/or crops were sown in standard soil in pots (Amaranthus palmeri (AMAPA), Lolium perenne (LOLPE), Euphorbia heterophylla (EPHHL), Setaria faberi (SETFA), Echinochloa crus-galli (ECHCG), Ipomoea hederacea (IPOHE)). After cultivation for one day under controlled conditions in a glasshouse (at 24/19° C., day/night; 16 hours light), the plants were sprayed with an aqueous spray solution derived from the formulation of the technical active ingredient in a small amount of acetone and a special solvent and emulsifier mixture referred to as IF50 (11.12% Emulsogen EL360 TM+44.44% N-methylpyrrolidone+44.44% Dowanol DPM glycol ether), to create a 50 g/l solution which was then diluted using 0.2% Genapol X080 as diluent to give the desired final dose of test compound. Compounds were applied at a 250 g/ha unless otherwise stated. The test plants were then grown under controlled conditions in the glasshouse (at 24/18° C., day/night; 15 hours light; 50% humidity) and watered twice daily. After 13 days the test was evaluated (100=total damage to plant; 0=no damage to plant).

Lolium perenne (LOLPE) [2] = assay: Pre-emergence biological efficacy, LOLPE
Experimental: as §1

[3] = test system: Euphorbia heterophylla (EPHHL); assay: Pre-emergence biological efficacy, EPHHL
Experimental: as §1

Setaria faberi (SETFA) [4] = assay: Pre-emergence biological efficacy, SETFA
Experimental: as §1

[5] = test system: Echinochloa crus-galli (ECHCG); assay: Pre-emergence biological efficacy, ECHCG
Experimental: as §1

[6] = test system: Ipomoea hederacea (IPOHE); assay: Pre-emergence biological efficacy, IPOHE
Experimental: as §1

[7] = test system: Amaranthus palmeri (AMAPA); assay: Post-emergence biological efficacy, AMAPA
Experimental: as §1, with “(AMAPA), (CHEAL), Euphorbia heterophylla (EPHHL), Ipomoea hederacea (IPOHE), Eleusine indica (ELEIN),” for “(AMAPA),”, “Digitaria sanguinalis (DIGSA),” for “Euphorbia heterophylla (EPHHL),”, “(ECHCG)).” for “(ECHCG), Ipomoea hederacea (IPOHE)).”, “14 days” for “one day”, “XO80” for “X080”

CHEAL = assay: Post-emergence biological efficacy, CHEAL
Experimental: as §1, with “(AMAPA), (CHEAL), Euphorbia heterophylla (EPHHL), Ipomoea hederacea (IPOHE), Eleusine indica (ELEIN),” for “(AMAPA),”, “Digitaria sanguinalis (DIGSA),” for “Euphorbia heterophylla (EPHHL),”, “(ECHCG)).” for “(ECHCG), Ipomoea hederacea (IPOHE)).”, “14 days” for “one day”, “XO80” for “X080”

[8] = test system: Euphorbia heterophylla (EPHHL); assay: Post-emergence biological efficacy, EPHHL
Experimental: as §1, with “(AMAPA), (CHEAL), Euphorbia heterophylla (EPHHL), Ipomoea hederacea (IPOHE), Eleusine indica (ELEIN),” for “(AMAPA),”, “Digitaria sanguinalis (DIGSA),” for “Euphorbia heterophylla (EPHHL),”, “(ECHCG)).” for “(ECHCG), Ipomoea hederacea (IPOHE)).”, “14 days” for “one day”, “XO80” for “X080”

[9] = test system: Ipomoea hederacea (IPOHE); assay: Post-emergence biological efficacy, IPOHE
Experimental: as §1, with “(AMAPA), (CHEAL), Euphorbia heterophylla (EPHHL), Ipomoea hederacea (IPOHE), Eleusine indica (ELEIN),” for “(AMAPA),”, “Digitaria sanguinalis (DIGSA),” for “Euphorbia heterophylla (EPHHL),”, “(ECHCG)).” for “(ECHCG), Ipomoea hederacea (IPOHE)).”, “14 days” for “one day”, “XO80” for “X080”

Eleusine indica (ELEIN) = assay: Post-emergence biological efficacy, ELEIN
Experimental: as §1, with “(AMAPA), (CHEAL), Euphorbia heterophylla (EPHHL), Ipomoea hederacea (IPOHE), Eleusine indica (ELEIN),” for “(AMAPA),”, “Digitaria sanguinalis (DIGSA),” for “Euphorbia heterophylla (EPHHL),”, “(ECHCG)).” for “(ECHCG), Ipomoea hederacea (IPOHE)).”, “14 days” for “one day”, “XO80” for “X080”

Lolium perenne (LOLPE) [10] = assay: Post-emergence biological efficacy, LOLPE
Experimental: as §1, with “(AMAPA), (CHEAL), Euphorbia heterophylla (EPHHL), Ipomoea hederacea (IPOHE), Eleusine indica (ELEIN),” for “(AMAPA),”, “Digitaria sanguinalis (DIGSA),” for “Euphorbia heterophylla (EPHHL),”, “(ECHCG)).” for “(ECHCG), Ipomoea hederacea (IPOHE)).”, “14 days” for “one day”, “XO80” for “X080”

[11] = test system: Digitaria sanguinalis (DIGSA); assay: Post-emergence biological efficacy, DIGSA
Experimental: as §1, with “(AMAPA), (CHEAL), Euphorbia heterophylla (EPHHL), Ipomoea hederacea (IPOHE), Eleusine indica (ELEIN),” for “(AMAPA),”, “Digitaria sanguinalis (DIGSA),” for “Euphorbia heterophylla (EPHHL),”, “(ECHCG)).” for “(ECHCG), Ipomoea hederacea (IPOHE)).”, “14 days” for “one day”, “XO80” for “X080”

Setaria faberi (SETFA) [12] = assay: Post-emergence biological efficacy, SETFA
Experimental: as §1, with “(AMAPA), (CHEAL), Euphorbia heterophylla (EPHHL), Ipomoea hederacea (IPOHE), Eleusine indica (ELEIN),” for “(AMAPA),”, “Digitaria sanguinalis (DIGSA),” for “Euphorbia heterophylla (EPHHL),”, “(ECHCG)).” for “(ECHCG), Ipomoea hederacea (IPOHE)).”, “14 days” for “one day”, “XO80” for “X080”

[13] = test system: Echinochloa crus-galli (ECHCG); assay: Post-emergence biological efficacy, ECHCG
Experimental: as §1, with “(AMAPA), (CHEAL), Euphorbia heterophylla (EPHHL), Ipomoea hederacea (IPOHE), Eleusine indica (ELEIN),” for “(AMAPA),”, “Digitaria sanguinalis (DIGSA),” for “Euphorbia heterophylla (EPHHL),”, “(ECHCG)).” for “(ECHCG), Ipomoea hederacea (IPOHE)).”, “14 days” for “one day”, “XO80” for “X080”

Structure (SMILES) | damage to plant, AMAPA [1] | damage to plant, LOLPE (Lolium perenne (LOLPE) [2]) | damage to plant, EPHHL [3] | damage to plant, SETFA (Setaria faberi (SETFA) [4]) | damage to plant, ECHCG [5] | damage to plant, IPOHE [6] | damage to plant, AMAPA [7] | damage to plant, CHEAL (CHEAL) | damage to plant, EPHHL [8] | damage to plant, IPOHE [9] | damage to plant, ELEIN (Eleusine indica (ELEIN)) | damage to plant, LOLPE (Lolium perenne (LOLPE) [10]) | damage to plant, DIGSA [11] | damage to plant, SETFA (Setaria faberi (SETFA) [12]) | damage to plant, ECHCG [13]
CCOC(=O)C[C@H](C)OC(=O)c1cc(-c2ncc(C(F)(F)F)cc2Cl)ccc1Cl [Compound 1-525 (S-enantiomer), [(1S)-3-ethoxy-1-methyl-3-oxo-propyl] 2-chloro-5-[3-chloro-5-(trifluoromethyl)-2-pyridyl]-benzoate] | 100 | 100 | 100 | 100 | 100 | 70 | 100 | 100 | 100 | 90 | 100 | 100 | 100 | 100 | 100
COC(=O)C[C@H](C)OC(=O)c1nc(-c2ncc(C(F)(F)F)cc2Cl)c(F)cc1Cl [Compound 11-524 (S-enantiomer), [(1S)-3-methoxy-1-methyl-3-oxo-propyl] 3-chloro-6-[3-chloro-5-(trifluoromethyl)-2-pyridyl]-5-fluoro-pyridine-2-carboxylate] | 100 | 100 | 100 | 100 | 100 | 100 | 100 | 100 | 100 | 100 | 100 | 100 | 100 | 100 | 100
CCOC(=O)CC(C)OC(=O)c1cc(-c2ncc(C(F)(F)F)cc2Cl)ccc1Cl (stereo not drawn) [Compound 1-525, (3-ethoxy-1-methyl-3-oxo-propyl) 2-chloro-5-[3-chloro-5-(trifluoromethyl)-2-pyridyl]benzoate] | 100 | 100 | 100 | 100 | 100 | 70 | 100 | 100 | 100 | 80 | 100 | 100 | 100 | 100 | 100
CCOC(=O)C[C@@H](C)OC(=O)c1cc(-c2ncc(C(F)(F)F)cc2Cl)c(F)cc1Cl [Compound 2-525 (R-enantiomer), [(1R)-3-ethoxy-1-methyl-3-oxo-propyl] 2-chloro-5-[3-chloro-5-(trifluoromethyl)-2-pyridyl]-4-fluoro-benzoate] | 100 | 100 | 100 | 100 | 100 | 60 | 100 | 100 | 100 | 100 | 100 | 100 | 100 | 100 | 100
CCOC(=O)C[C@H](C)OC(=O)c1cc(-c2ncc(C(F)(F)F)cc2Cl)c(F)cc1Cl [Compound 2-525 (S-enantiomer), [(1S)-3-ethoxy-1-methyl-3-oxo-propyl] 2-chloro-5-[3-chloro-5-(trifluoromethyl)-2-pyridyl]-4-fluoro-benzoate] | 100 | 100 | 100 | 100 | 100 | 100 | 100 | 100 | 100 | 100 | 100 | 100 | 100 | 100 | 100

Reference: US20250212879A1, “HERBICIDAL COMPOUNDS” (SYNGENTA CROP PROTECTION AG, priority 2022, published 2025)
